From US20230364194A1, “GLP-1R/GCGR Dual Target Agonist Polypeptide Derivative for Treatment of Hepatic Fibrosis Associated with Viral Hepatitis” (Shenzhen Turier Biotech. Co., Ltd., priority 2020, published 2023)
Starred links: 1 amine or outer side, 2 acyl side, 3 side chain; linkers in the order of their positions; H or OH if unused. Non-standard residues stand in square brackets, D forms with d. Groups on a side chain read outwards from the residue. Primed or numbered codes have the meaning given here. No end group written: not given here. *: point of attachment. C18 diacid = O=C(O)CCCCCCCCCCCCCCCCC(=O)*; C16 diacid = O=C(O)CCCCCCCCCCCCCCC(=O)*; γGlu = O=C(O)[C@H](CCC(=O)[*:2])N[*:1]; Stearoyl = CCCCCCCCCCCCCCCCCC(=O)*; Palmitoyl = CCCCCCCCCCCCCCCC(=O)*; PEG2′ = not defined here; Aib = CC(C)(N)C(=O)O

System: Hepatic stellate cell strain LX-2
Assay: In vitro effect on expression of LX-2 cell activation marker α-SMA (Western Blot, β-actin reference)
Type: cell-based
Conditions: LX-2 cells, 10.0 uM, 48 hours, negative control = 100%
Source text: Hepatic stellate cell strain LX-2 (from China Center for Type Culture Collection, Shanghai) was selected to study and observe the effects of polypeptide compounds 1-25 on the expression level of LX-2 cell activation marker α-smooth muscle actin (α-SMA). The control group was given the same volume of Dulbecco’s modified Eagle medium (DMEM) (from Gibco, United States), and β-actin (from TransGen Biotech) as the endogenous reference, wherein, α-SMA is a symbolic feature that distinguishes […] from myofibroblasts.
Hepatic stellate cell LX-2 was laid on 35 mm cell culture plate, cultured with DMEM (high glucose)+10% FBS+1% double-antibody culture medium (Thermo Fisher), placed overnight when the cells grew to 70% convergence at 37° C. under the condition of 5% CO2 without serum, and treated with the above GLP-1R/GCGR dual target agonist polypeptide derivatives (namely, polypeptide compounds 1-25) (dissolved in PBS) for 48 hours from the next morning to extract cell protein, and then Western Blot was performed with β-actin as endogenous reference to analyze the expression levels of α-SMA and β-actin by gray-scale analysis using Image J 1.50i. PBS with the same volume as that in experimental group was added in negative control.
The above polypeptide compounds 1-25 with a concentration of 10.0 µM were added, showing that they could reduce the expression of α-SMA at the concentration of 10.0 µM; and the negative control had no effect on the expression of α-SMA (referring to Table 2).
The integrated gray scale of α-SMA/β-actin in the negative control group was considered to be 100% to analyze the in vitro inhibitory activity on hepatic fibrosis by tested polypeptides.

Substance	Relative expression of α-SMA (α-SMA/β-actin, %)
His-(D-Ser)-Gln-Gly-Thr-Phe-Thr-Ser-Asp-Tyr-Ser-Lys-Tyr-Leu-Asp-Glu-Lys(PEG2-PEG2-γGlu-CO(CH2)16CO2H)-Ala- Ala-His-Asp-Phe-Val-Glu-Trp-Leu-Leu-Asn-Gly-Gly-Gly-Pro-Ser-Ser-Gly-Ala-Pro-Pro-Pro-Ser-NH2 (H[dS]QGTFTSDYSKYLDEK([PEG2′-PEG2′-γGlu-C18 diacid])AAHDFVEWLLNGGGPSSGAPPPS-NH2) [Compound 9]	40.89%
His-(D-Ser)-Gln-Gly-Thr-Phe-Thr-Ser-Asp-Tyr-Ser-Lys-Tyr-Leu-Asp-Glu-Lys-Ala-Ala-Lys(PEG2-PEG2-yGlu- CO(CH2)16CO2H)-Glu-Phe-Ile-Glu-Trp-Leu-Leu-Asn-Gly- Gly-Gly-Pro-Ser-Ser-Gly-Ala-Pro-Pro-Pro-Ser-NH2 (H[dS]QGTFTSDYSKYLDEKAAK([PEG2′-PEG2′-γGlu-C18 diacid])EFIEWLLNGGGPSSGAPPPS-NH2) [Compound 12]	41.99%
His-(D-Ser)-Gln-Gly-Thr-Phe-Thr-Ser-Asp-Tyr-Ser-Lys-Tyr-Leu-Asp-Glu-Lys-Ala-Ala-Lys(PEG2-PEG2-γGlu- CO(CH2)14C3)-Glu-Phe-Ile-Glu-Trp-Leu-Leu-Arg-Gly-Gly- Gly-Pro-Ser-Ser-Gly-Ala-Pro-Pro-Pro-Ser-NH2 (H[dS]QGTFTSDYSKYLDEKAAK([PEG2′-PEG2′-γGlu-Palmitoyl])EFIEWLLRGGGPSSGAPPPS-NH2) [Compound 10]	46.35%
His-(D-Ser)-Gln-Gly-Thr-Phe-Thr-Ser-Asp-Tyr-Ser-Lys-Tyr-Leu-Asp-Glu-Lys-Ala-Ala-Lys(PEG2-PEG2-γGlu- CO(CH2)16CH3)-Glu-Phe-Ile-Glu-Trp-Leu-Leu-Asn-Gly-Gly- Gly-Pro-Ser-Ser-Gly-Ala-Pro-Pro-Pro-Ser-NH2 (H[dS]QGTFTSDYSKYLDEKAAK([PEG2′-PEG2′-γGlu-Stearoyl])EFIEWLLNGGGPSSGAPPPS-NH2) [Compound 14]	47.85%
His-(D-Ser)-Gln-Gly-Thr-Phe-Thr-Ser-Asp-Tyr-Ser-Lys-Tyr-Leu-Asp-Glu-Lys-Ala-Ala-Lys(PEG2-PEG2-γGlu- CO(CH2)16CO2H)-Glu-Phe-Ile-Glu-Trp-Leu-Leu-Arg-Thr-Gly- Gly-Pro-Ser-Ser-Gly-Ala-Pro-Pro-Pro-Ser-NH2 (H[dS]QGTFTSDYSKYLDEKAAK([PEG2′-PEG2′-γGlu-C18 diacid])EFIEWLLRTGGPSSGAPPPS-NH2) [Compound 8]	39.92%
His-(D-Ser)-Gln-Gly-Thr-Phe-Thr-Ser-Asp-Tyr-Ser-Lys-Tyr-Leu-Asp-Glu-Lys-Ala-Ala-Lys(PEG2-PEG2-γGlu-CO(CH2)14CO2H)-Glu-Phe-Ile-Glu-Trp-Leu-Leu-Asn-Gly- Gly-Gly-Pro-Ser-Ser-Gly-Ala-Pro-Pro-Pro-Ser-NH2 (H[dS]QGTFTSDYSKYLDEKAAK([PEG2′-PEG2′-γGlu-C16 diacid])EFIEWLLNGGGPSSGAPPPS-NH2) [Compound 13]	40.46%
His-(D-Ser)-Gln-Gly-Thr-Phe-Thr-Ser-Asp-Tyr-Ser-Lys-Tyr-Leu-Asp-Lys(PEG2-PEG2-CO(CH2)16CO2H)-Arg-Arg-Ala- Gln-Asp-Phe-Val-Gln-Trp-Leu-Met-Asn-Thr-Gly-Gly-Pro-Ser-Ser-Gly-Ala-Pro-Pro-Pro-Ser-NH2 (H[dS]QGTFTSDYSKYLDK([PEG2′-PEG2′-C18 diacid])RRAQDFVQWLMNTGGPSSGAPPPS-NH2) [Compound 18]	45.95%
His-(D-Ser)-Gln-Gly-Thr-Phe-Thr-Ser-Asp-Tyr-Ser-Lys-Tyr-Leu-Asp-Lys(PEG2-PEG2-CO(CH2)16CO2H)-Arg-Arg-Ala- Gln-Asp-Phe-Val-Gln-Trp-Leu-Nle-Asn-Thr-Gly-Gly-Pro-Ser-Ser-Gly-Ala-Pro-Pro-Pro-Ser-NH2 (HXQGTFTSDYSKYLDKRRAQDFVQWLXNTGGPSSGAPPPS; D-Ser; Nle; PEG2-PEG2-C18 diacid lipidation; C-terminal amide; (2)..(2) Xaa=D-Ser; (16)..(16) A side chain of Lys is linked to -PEG2-PEG2-CO(CH2)16CO2H; (27)..(27) Xaa=Nle) [Compound 24]	52.65%
His-(D-Ser)-Gln-Gly-Thr-Phe-Thr-Ser-Asp-Tyr-Ser-Lys-Tyr-Leu-Asp-Lys(PEG2-PEG2-yGlu-CO(CH2)16CO2H)-Arg-Arg- Ala-Gln-Asp-Phe-Val-Gln-Trp-Leu-Leu-Asn-Thr-Gly-Gly-Pro-Ser -Ser-Gly-Ala-Pro-Pro-Pro-Ser-NH2 (H[dS]QGTFTSDYSKYLDK([PEG2′-PEG2′-γGlu-C18 diacid])RRAQDFVQWLLNTGGPSSGAPPPS-NH2) [Compound 22]	48.76%
His-(D-Ser)-Gln-Gly-Thr-Phe-Thr-Ser-Asp-Tyr-Ser-Lys-Tyr-Leu-Asp-Lys(PEG2-PEG2-yGlu-CO(CH2)16CO2H)-Arg-Arg- Ala-Gln-Asp-Phe-Val-Gln-Trp-Leu-Nle-Asn-Thr-Gly-Gly-Pro-Ser -Ser-Gly-Ala-Pro-Pro-Pro-Ser-NH2 (HXQGTFTSDYSKYLDKRRAQDFVQWLXNTGGPSSGAPPPS; D-Ser; Nle; PEG2-PEG2-γGlu-C18 diacid lipidation; C-terminal amide; (2)..(2) Xaa=D-Ser; (16)..(16) A side chain of Lys is linked to -PEG2-PEG2-AGlu-CO(CH2)16CO2H; (27)..(27) Xaa=Nle) [Compound 21]	43.39%
His-(D-Ser)-Gln-Gly-Thr-Phe-Thr-Ser-Asp-Tyr-Ser-Lys-Tyr-Leu-Asp-Lys(PEG2-PEG2-γGlu-CO(CH2)14CH3)-Arg-Arg-Ala- Gln-Asp-Phe-Val-Gln-Trp-Leu-Met-Asn-Thr-Gly-Gly-Pro-Ser-Ser-Gly-Ala-Pro-Pro-Pro-Ser-NH2 (H[dS]QGTFTSDYSKYLDK([PEG2′-PEG2′-γGlu-Palmitoyl])RRAQDFVQWLMNTGGPSSGAPPPS-NH2) [Compound 1]	57.59%
His-(D-Ser)-Gln-Gly-Thr-Phe-Thr-Ser-Asp-Tyr-Ser-Lys-Tyr-Leu-Asp-Lys(PEG2-PEG2-γGlu-CO(CH2)16CH3)-Arg-Arg-Ala- Gln-Asp-Phe-Val-Gln-Trp-Leu-Met-Asn-Thr-Gly-Gly-Pro-Ser-Ser-Gly-Ala-Pro-Pro-Pro-Ser-NH2 (H[dS]QGTFTSDYSKYLDK([PEG2′-PEG2′-γGlu-Stearoyl])RRAQDFVQWLMNTGGPSSGAPPPS-NH2) [Compound 19]	44.78%
His-(D-Ser)-Gln-Gly-Thr-Phe-Thr-Ser-Asp-Tyr-Ser-Lys-Tyr-Leu-Asp-Lys(PEG2-PEG2-γGlu-CO(CH2)16CO2H)-Arg-Arg- Ala-Gln-Asp-Phe-Val-Gln-Trp-Leu-Met-Asn-Thr-Gly-Gly-Pro-Ser-Ser-Gly-Ala-Pro-Pro-Pro-Ser-NH2 (H[dS]QGTFTSDYSKYLDK([PEG2′-PEG2′-γGlu-C18 diacid])RRAQDFVQWLMNTGGPSSGAPPPS-NH2) [Compound 17]	38.78%
His-(D-Ser)-Gln-Gly-Thr-Phe-Thr-Ser-Asp-Tyr-Ser-Lys-Tyr-Leu-Asp-Lys-Lys(PEG2-PEG2-γGlu-CO(CH2)14CH3)-Arg-Ala- Gln-Asp-Phe-Val-Gln-Trp-Leu-Met-Asn-Thr-Gly-Gly-Pro-Ser-Ser-Gly-Ala-Pro-Pro-Pro-Ser-NH2 (H[dS]QGTFTSDYSKYLDKK([PEG2′-PEG2′-γGlu-Palmitoyl])RAQDFVQWLMNTGGPSSGAPPPS-NH2) [Compound 16]	40.86%
His-(D-Ser)-Gln-Gly-Thr-Phe-Thr-Ser-Asp-Tyr-Ser-Lys-Tyr-Leu-Asp-Lys-Lys(PEG2-PEG2-γGlu-CO(CH2)16CO2H)-Ala- Ala-His-Asp-Phe-Val-Glu-Trp-Leu-Leu-Arg-Thr-Gly-Gly-Pro-Ser-Ser-Gly-Ala-Pro-Pro-Pro-Ser-NH2 [Compound 7]	46.53%
His-Aib-Gln-Gly-Thr-Phe-Thr-Ser-Asp-Lys(PEG2-PEG2-yGlu- CO(CH2)14CH3)-Ser-Lys-Tyr-Leu-Asp-Glu-Arg-Arg-Ala-Gln- Asp-Phe-Val-Gln-Trp-Leu-Leu-Asp-Gly-Gly-Gly-Pro-Ser-Ser-Gly-Ala-Pro-Pro-Pro-Ser-NH2 (H[Aib]QGTFTSDK([PEG2′-PEG2′-γGlu-Palmitoyl])SKYLDERRAQDFVQWLLDGGGPSSGAPPPS-NH2) [Compound 6]	42.34%
His-Aib-Gln-Gly-Thr-Phe-Thr-Ser-Asp-Lys(PEG2-PEG2-yGlu- CO(CH2)16CH3)-Ser-Lys-Tyr-Leu-Asp-Glu-Arg-Arg-Ala-Gln- Asp-Phe-Val-Gln-Trp-Leu-Leu-Asp-Gly-Gly-Pro-Ser-Ser-Gly-Ala-Pro-Pro-Pro-Ser-NH2 (H[Aib]QGTFTSDK([PEG2′-PEG2′-γGlu-Stearoyl])SKYLDERRAQDFVQWLLDGGPSSGAPPPS-NH2) [Compound 4]	40.19%
His-Aib-Gln-Gly-Thr-Phe-Thr-Ser-Asp-Lys(PEG2-PEG2-γGlu- CO(CH2)14CO2H)-Ser-Lys-Tyr-Leu-Asp-Glu-Arg-Arg-Ala- Gln-Asp-Phe-Val-Gln-Trp-Leu-Leu-Asp-Gly-Gly-Gly-Pro-Ser-Ser-Gly-Ala-Pro-Pro-Pro-Ser-NH2 (H[Aib]QGTFTSDK([PEG2′-PEG2′-γGlu-C16 diacid])SKYLDERRAQDFVQWLLDGGGPSSGAPPPS-NH2) [Compound 3]	45.28%
